Reference: US20120202856A1, “SUBSTITUTED BENZIMDAZOLE DERIVATIVES USEFUL AS TRPM8 RECEPTOR MODULATORS” (priority 2011, published 2012)
Several values for one entry are separate records, joined by “and”; a condition that tells them apart may be missing. Equal entries are not always repeated. Structures can show the parent of a compound that is named as a salt. Where two headings read alike, the source gives them in different places.

Target: T1, canine TRPM8 (Canis lupus familiaris, UniProt Q1A7N1)
T1 construct: expressed in transfected cells
Assay: In Vitro Canine TRPM8 Functional Assay (intracellular Ca2+ fluorescence, icilin activation, HEK293 cells)
Format: cell-based
Settings: for % Inh (%) @0.2 μM, in vitro TRP M8 Activity: 0.2 μM test compound; for % Inh (%) @0.2 μM, in vitro TRP M8 Activity / inhibition at 0.2 µM: individually measured values; for IC50: HEK293 cells expressing canine TRPM8, icilin activation, individually measured values (batches/salt forms), read-out: IC50 (nM), in vitro TRP M8 Activity
Procedure: The changes in fluorescent signal were monitored by a fluorescence plate reader, either a FLIPR™ (Molecular Devices) or FDSS (Hamamatsu). […] Cells were maintained in 5% CO2 at 37° C. At 24 hr prior to assay, cells were seeded in black wall, clear-base poly-D-lysine coated 384-well plates (BD Biosciences, NJ, USA) at a density of 5,000 cells per well in culture medium and grown overnight in 5% CO2 at 37° C. On assay day, growth media was removed, and cells were loaded with Calcium 3 Dye (Molecular Devices) for 35 min at 37° C., under 5% CO2 and then incubated for 25 min at room temperature and atmosphere. Subsequently, cells were tested for agonist-induced increases in intracellular Ca^2+ levels using FLIPR™ or FDSS. […] Maximal fluorescence intensity (FI) achieved upon addition of icilin was exported from the FLIPR™ or FDSS software and further analyzed using GraphPad Prism 3.02 (Graph Pad Software Inc., CA, U.S.A.). Basal FI was subtracted prior to normalizing data to percent of maximal response. Curves were generated using the average of quadruplicate wells for each data point using nonlinear regression of either sigmoidal dose response or sigmoidal dose response (variable slope). Finally, IC50 values were calculated with the best-fit curve determined by GraphPad Prism

[1] = HEK293, read-out: % Inh (%) @0.2 μM, in vitro TRP M8 Activity, 0.2 μM test compound
[2] = HEK293, 0.2 μM test compound, read-out: % Inh (%) @0.2 μM, in vitro TRP M8 Activity

T1 sequence (Q1A7N1 1-1104): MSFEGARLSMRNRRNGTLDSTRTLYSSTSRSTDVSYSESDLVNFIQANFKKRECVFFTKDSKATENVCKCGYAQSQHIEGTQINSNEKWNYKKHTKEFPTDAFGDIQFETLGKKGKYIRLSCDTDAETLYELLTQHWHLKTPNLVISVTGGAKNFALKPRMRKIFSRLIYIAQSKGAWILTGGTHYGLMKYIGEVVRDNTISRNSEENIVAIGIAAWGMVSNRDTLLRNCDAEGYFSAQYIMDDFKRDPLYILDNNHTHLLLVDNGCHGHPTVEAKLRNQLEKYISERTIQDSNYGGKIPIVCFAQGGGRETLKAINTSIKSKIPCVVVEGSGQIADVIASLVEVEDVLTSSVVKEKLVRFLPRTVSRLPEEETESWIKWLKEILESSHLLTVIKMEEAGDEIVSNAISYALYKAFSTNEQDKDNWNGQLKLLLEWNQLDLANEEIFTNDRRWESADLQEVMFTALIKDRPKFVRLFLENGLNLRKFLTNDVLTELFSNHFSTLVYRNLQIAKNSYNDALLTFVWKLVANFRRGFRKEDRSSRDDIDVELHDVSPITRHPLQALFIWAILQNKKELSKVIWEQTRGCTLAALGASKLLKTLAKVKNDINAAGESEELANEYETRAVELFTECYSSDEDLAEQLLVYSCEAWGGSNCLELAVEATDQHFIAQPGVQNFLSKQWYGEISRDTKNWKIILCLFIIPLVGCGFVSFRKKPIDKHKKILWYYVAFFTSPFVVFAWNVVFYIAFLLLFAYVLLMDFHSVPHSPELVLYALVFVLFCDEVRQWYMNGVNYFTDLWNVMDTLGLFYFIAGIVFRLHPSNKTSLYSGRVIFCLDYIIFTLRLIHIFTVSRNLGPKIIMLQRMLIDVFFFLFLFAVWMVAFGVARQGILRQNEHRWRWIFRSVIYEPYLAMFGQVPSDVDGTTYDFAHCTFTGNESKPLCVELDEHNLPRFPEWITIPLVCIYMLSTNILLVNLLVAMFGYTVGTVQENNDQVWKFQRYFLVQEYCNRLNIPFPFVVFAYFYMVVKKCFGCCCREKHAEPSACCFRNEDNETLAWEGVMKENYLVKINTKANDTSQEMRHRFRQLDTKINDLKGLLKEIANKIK

Compound: Cn1nc(C(C)(C)C)c(C#N)c1-c1nc2cc(-c3c(F)cccc3C(F)(F)F)cc(C(F)(F)F)c2[nH]1.[Na] [Compound 152, 3-tert-Butyl-5-[5-(2-fluoro-6-trifluoromethyl-phenyl)-7-trifluoromethyl-1H-benzimidazol-2-yl]-1-methyl-1H-pyrazole-4-carbonitrile sodium salt]
- % Inh (%) @0.2 μM, in vitro TRP M8 Activity (sodium salt, 0.2 µM): 99%
- inhibition at 0.2 µM [1]: 100%
- IC50: 5.3 nM and 6.5 nM and 5 nM

Compound: CC(C)(C)c1cc(-c2nc3cc(-c4c(F)cccc4C(F)(F)F)ccc3[nH]2)on1 [Compound 82, 2-(3-tert-Butyl-isoxazol-5-yl)-5-(2-fluoro-6-trifluoromethyl-phenyl)-1H-benzimidazole hydrochloride]
- IC50: 11.6 nM and 1.8 nM

Compound: Cc1c(C(C)(C)C)noc1-c1nc2cc(-c3ccccc3C(F)(F)F)ccc2[nH]1 [Compound 108, 2-(3-tert-Butyl-4-methyl-isoxazol-5-yl)-5-(2-trifluoromethyl-phenyl)-1H-benzimidazole hydrochloride]
- IC50: 10.2 nM

Compound: CC(C)(C)c1cc(-c2nc3cc(-c4ccccc4Cl)cc(C(F)(F)F)c3[nH]2)on1 [Compound 141, 2-(3-tert-Butyl-isoxazol-5-yl)-5-(2-chloro-phenyl)-7-trifluoromethyl-1H-benzimidazole hydrochloride]
- inhibition at 0.2 µM [2]: 99%
- IC50: 5.4 nM and 8.7 nM

Compound: Cc1c(C(C)(C)C)nn(C)c1-c1nc2cc(-c3ccccc3Cl)ccc2[nH]1 [Compound 94, 2-(5-tert-Butyl-2,4-dimethyl-2H-pyrazol-3-yl)-5-(2-chloro-phenyl)-1H-benzimidazole hydrochloride]
- IC50: 4.5 nM

Compound: Cc1oc(C(C)(C)C)nc1-c1nc2cc(-c3ccccc3)cc(C(F)(F)F)c2[nH]1 [Compound 157, 2-(2-tert-Butyl-5-methyl-oxazol-4-yl)-5-phenyl-7-trifluoromethyl-1H-benzimidazole hydrochloride]
- inhibition at 0.2 µM [2]: 41%

Compound: Cc1c(C(C)(C)C)nn(C)c1-c1nc2cc(-c3ccccc3Cl)cc(C(F)(F)F)c2[nH]1 [Compound 121, 2-(5-tert-Butyl-2,4-dimethyl-2H-pyrazol-3-yl)-5-(2-chloro-phenyl)-7-trifluoromethyl-1H-benzimidazole hydrochloride]
- IC50: 3.1 nM

Compound: Cc1oc(C(C)(C)C)nc1-c1nc2cc(-c3ccccc3Cl)cc(C(F)(F)F)c2[nH]1 [Compound 155, 2-(2-tert-Butyl-5-methyl-oxazol-4-yl)-5-(2-chloro-phenyl)-7-trifluoromethyl-1H-benzimidazole hydrochloride]
- inhibition at 0.2 µM [2]: 59%

Compound: Cc1c(C(C)(C)C)nn(C)c1-c1nc2cc(-c3c(F)cccc3F)cc(C(F)(F)F)c2[nH]1 [Compound 122, 2-(5-tert-Butyl-2,4-dimethyl-2H-pyrazol-3-yl)-5-(2,6-difluoro-phenyl)-7-trifluoromethyl-1H-benzimidazole hydrochloride]
- IC50: 5.5 nM

Compound: CC(C)(C)c1cc(-c2nc3cc(-c4ccccc4Cl)ccc3[nH]2)on1 [Compound 68, 2-(3-tert-Butyl-isoxazol-5-yl)-5-(2-chloro-phenyl)-1H-benzimidazole trifluoroacetic acid salt]
- IC50: 14.8 nM and 16.3 nM

Compound: Cc1c(C(C)(C)C)nn(C)c1-c1nc2cc(-c3ccccc3C(F)(F)F)cc(Cl)c2[nH]1 [Compound 135, 2-(5-tert-Butyl-2,4-dimethyl-2H-pyrazol-3-yl)-7-chloro-5-(2-trifluoromethyl-phenyl)-1H-benzimidazole hydrochloride]
- inhibition at 0.2 µM [2]: 99%
- IC50: 4 nM and 6.9 nM

Compound: CCCc1cc(-c2nc3ccc(-c4ccccc4OC(F)(F)F)cc3[nH]2)on1 [Compound 19, 2-(3-Propylisoxazol-5-yl)-6-(2-trifluoromethoxyphenyl)-1H-benzimidazole hydrochloride]
- IC50: 18 nM

Compound: Cl.Cn1nc(C(C)(C)C)c(Cl)c1-c1nc2cc(-c3ccccc3F)cc(Cl)c2[nH]1 [Compound 114, 2-(5-tert-Butyl-4-chloro-2-methyl-2H-pyrazol-3-yl)-7-chloro-5-(2-fluoro-phenyl)-1H-benzimidazole sodium salt]
- % Inh (%) @0.2 μM, in vitro TRP M8 Activity (sodium salt, 0.2 µM): 100%
- inhibition at 0.2 µM [2]: 99%
- IC50: 4.7 nM and 10.3 nM and 10.2 nM

Compound: Cn1nc(C(C)(C)C)c(C#N)c1-c1nc2cc(-c3ccccc3OC(F)(F)F)cc(C(F)(F)F)c2[nH]1.[Na] [Compound 150, 3-tert-Butyl-1-methyl-5-[5-(2-trifluoromethoxy-phenyl)-7-trifluoromethyl-1H-benzimidazol-2-yl]-1H-pyrazole-4-carbonitrile sodium salt]
- % Inh (%) @0.2 μM, in vitro TRP M8 Activity: 100, 100%
- inhibition at 0.2 µM [1]: 100%
- IC50: 5.7 nM and 7.2 nM and 8.3 nM

Compound: Cn1nc(C2CCC2)cc1-c1nc2cc(-c3ccccc3OC(F)(F)F)ccc2[nH]1 [Compound 38, 2-(5-Cyclobutyl-2-methyl-2H-pyrazol-3-yl)-5-(2-trifluoromethoxy-phenyl)-1H-benzimidazole sodium salt]
- IC50: 55.8 nM

Compound: CC(C)(C)c1cc(-c2nc3cc(-c4ccccc4C(F)(F)F)ccc3[nH]2)n(Cc2ccccc2)n1 [Compound 48, 2-(5-tert-Butyl-2-benzyl-2H-pyrazol-3-yl)-5-(2-trifluoromethylphenyl)-1H-benzimidazole sodium salt]
- IC50: 18.4 nM

Compound: Cc1oc(C(C)(C)C)nc1-c1nc2cc(-c3ccccc3C(F)(F)F)cc(C(F)(F)F)c2[nH]1 [Compound 153, 2-(2-tert-Butyl-5-methyl-oxazol-4-yl)-7-trifluoromethyl-5-(2-trifluoromethyl-phenyl)-1H-benzimidazole hydrochloride]
- inhibition at 0.2 µM [2]: 25%

Compound: Cc1c(C(C)(C)C)nn(C)c1-c1nc2cc(-c3c(F)cccc3C(F)(F)F)cc(C(F)(F)F)c2[nH]1 [Compound 119, 2-(5-tert-Butyl-2,4-dimethyl-2H-pyrazol-3-yl)-5-(2-fluoro-6-trifluoromethyl-phenyl)-7-trifluoromethyl-1H-benzimidazole hydrochloride]
- IC50: 2 nM

Compound: CC(C)(C)Cc1cc(-c2nc3ccc(-c4ccccc4C(F)(F)F)cc3[nH]2)on1 [Compound 20, 2-[3-(2,2-Dimethylpropyl)isoxazol-5-yl]-6-(2-trifluoromethylphenyl)-1H-benzimidazole hydrochloride]
- IC50: 19 nM

Compound: Cc1oc(C(C)(C)C)nc1-c1nc2cc(-c3ccccc3F)cc(C(F)(F)F)c2[nH]1 [Compound 154, 2-(2-tert-Butyl-5-methyl-oxazol-4-yl)-5-(2-fluoro-phenyl)-7-trifluoromethyl-1H-benzimidazole hydrochloride]
- inhibition at 0.2 µM [2]: 57%

Compound: Cc1c(C(C)(C)C)noc1-c1nc2cc(-c3c(F)cccc3C(F)(F)F)ccc2[nH]1 [Compound 111, 2-(3-tert-Butyl-4-methyl-isoxazol-5-yl)-5-(2-fluoro-6-trifluoromethyl-phenyl)-1H-benzimidazole hydrochloride]
- IC50: 10.1 nM

Compound: Cc1ccccc1-c1ccc2[nH]c(-c3cc(C(C)(C)C)nn3C)nc2c1 [Compound 55, 2-(5-tert-Butyl-2-methyl-2H-pyrazol-3-yl)-5-o-tolyl-1H-benzimidazole trifluoroacetic acid salt]
- IC50: 5.5 nM

Compound: Cc1oc(C(C)(C)C)c(C#N)c1-c1nc2cc(-c3ccccc3C(F)(F)F)cc(C(F)(F)F)c2[nH]1 [Compound 184, 2-tert-Butyl-5-methyl-4-[7-trifluoromethyl-5-(2-trifluoromethyl-phenyl)-1H-benzimidazol-2-yl]-furan-3-carbonitrile sodium salt]
- inhibition at 0.2 µM [2]: 101%
- IC50: 6.4 nM

Compound: Cc1c(C(C)(C)C)nn(C)c1-c1nc2cc(-c3c(F)cccc3OC(F)(F)F)cc(C(F)(F)F)c2[nH]1 [Compound 123, 2-(5-tert-Butyl-2,4-dimethyl-2H-pyrazol-3-yl)-5-(2-fluoro-6-trifluoromethoxy-phenyl)-7-trifluoromethyl-1H-benzimidazole hydrochloride]
- IC50: 7.9 nM

Compound: Cn1nc(C(C)(C)C)c(Cl)c1-c1nc2cc(-c3c(F)cccc3F)cc(C(F)(F)F)c2[nH]1 [Compound 124, 2-(5-tert-Butyl-4-chloro-2-methyl-2H-pyrazol-3-yl)-5-(2,6-difluoro-phenyl)-7-trifluoromethyl-1H-benzimidazole hydrochloride]
- inhibition at 0.2 µM [2]: 99%
- IC50: 7.3 nM and 4.4 nM

Compound: CC(C)Cc1cc(-c2nc3cc(-c4ccccc4C(F)(F)F)ccc3[nH]2)on1 [Compound 22, 2-(3-Isobutylisoxazol-5-yl)-5-(2-trifluoromethylphenyl)-1H-benzimidazole hydrochloride]
- IC50: 32 nM

Compound: Cc1c(C(C)(C)C)noc1-c1nc2cc(-c3c(F)cccc3OC(F)(F)F)ccc2[nH]1 [Compound 110, 2-(3-tert-Butyl-4-methyl-isoxazol-5-yl)-5-(2-fluoro-6-trifluoromethoxy-phenyl)-1H-benzimidazole hydrochloride]
- IC50: 14.3 nM

Compound: CC(C)c1cc(-c2nc3cc(-c4cccc(C(F)(F)F)c4)ccc3[nH]2)on1 [Compound 7, 2-(3-Isopropylisoxazol-5-yl)-5-(3-trifluoromethylphenyl)-1H-benzimidazole sodium salt]
- inhibition at 0.2 µM [2]: 10%
